# Read-outs that look alike come from different tables or passages of the source.
# What was measured:
# [1] = tested on: hSC-CMs (Cor.4U Cardiomyocytes); experiment: Apoptosis assay (CellEvent Caspase-3/7 Green, IncuCyte ZOOM kinetics over 24 h); type: cell-based, human; parameters: key to Caspase / Caspase MEAN: % of time-matched vehicle control (green object area); details: for activity at 0.03 µM / activity at 0.1 µM / activity at 0.3 µM / activity at 1 µM / activity at 3 µM / activity at 30 µM: Homo sapiens, Cardiomyocyte, normalized to time-matched vehicle control; for Apoptosis (caspase-3/7 activation), result in words / Time to reach the maximum number of apoptotic cells: hSC-CMs, monitored over 24 h
# Procedure, shortened: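 Cor.4U cardiomyocytes were cultured 4 days at 5% CO2 and 37 °C, given a 2 h baseline, then treated with compound for 24 h. Caspase-3/7 green nuclear signal was imaged every 2 h, and total green object area per well (μm^2/well) was normalized to the time-matched vehicle control. At least three replicates were run per concentration.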
# PI3K p110α = details: ref [23]–[25] (NVP-BEZ235), [27] (LY 294002), [28] (GDC-0941), [31] (HS-173), [33] (CAL-101); read-out: Target IC50 p110α; cited from earlier work
# PI3K p110β = details: ref [23]–[25] (NVP-BEZ235), [27] (LY 294002), [28] (GDC-0941), [32] (TGX-221), [33] (CAL-101), [35] (CZC24832); read-out: Target IC50 p110β; cited from earlier work
# PI3K p110δ = details: ref [23]–[25] (NVP-BEZ235), [27] (LY 294002), [28] (GDC-0941), [33] (CAL-101); read-out: Target IC50 p110δ; cited from earlier work
# PI3K p110γ = details: ref [23]–[25] (NVP-BEZ235), [28] (GDC-0941), [33] (CAL-101), [35] (CZC24832); read-out: Target IC50 p110γ; cited from earlier work
# [2] = tested on: hSC-CMs (Cor.4U Cardiomyocytes); experiment: CardioExcyte 96 impedance and EFP recording (beating rate, base impedance); type: cell-based, human; details: for activity at 0.03 µM / activity at 0.3 µM / activity at 3 µM / activity at 30 µM: Homo sapiens, Cardiomyocyte, vs baseline before drug (taken as 100%)
# Procedure, shortened: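 hSC-CM monolayers (Cor.4U), cultured 4 days at 37 °C, 5% CO2, recorded spontaneously beating; impedance sampled at 1 kHz, EFP at 10 kHz. Beating rate taken as reciprocal of inter-spike interval in EFP. Each test concentration expressed as fractional change versus pre-drug baseline (100%).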
# [3] = tested on: hSC-CMs (Cor.4U Cardiomyocytes); experiment: ATP assay (CellTiter-Glo Luminescent Cell Viability Assay); type: cell-based, human; details: for viability at 0.03 µM / viability at 0.3 µM / viability at 3 µM / viability at 30 µM: Homo sapiens, Cardiomyocyte, normalized to time-matched DMSO control
# Procedure, shortened: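 Human stem-cell-derived Cor.4U cardiomyocytes (25,000–30,000/well), cultured 4 days at 37 °C, switched to serum-free BMCC medium 12 h before dosing. Cellular ATP quantified by CellTiter-Glo luminescence and normalized to time-matched DMSO controls; at least three replicates per concentration.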
# GSK-3β = details: ref [46] (CHIR99021), [48] (TWS119); read-out: Target IC50 GSK-3β; cited from earlier work
smiles,measurement,setting,value
"CS(=O)(=O)N1CCN(Cc2cc3nc(-c4cccc5[nH]ncc45)nc(N4CCOCC4)c3s2)CC1 [GDC-0941, 2-(1 H -Indazol-4-yl)-6-(4-methanesulfonyl-piperazin-1-ylmethyl)-4-morpholin-4-yl-thieno[3,2-d]pyrimidine]",activity at 0.03 µM,[1]; 2h,157%
same,activity at 0.03 µM,[1]; 24h,80%
same,activity at 0.1 µM,"[1]; 0.1 µM, 2h",138%
same,activity at 0.1 µM,"[1]; 0.1 µM, 24h",77%
same,activity at 0.3 µM,[1]; 2h,106%
same,activity at 0.3 µM,[1]; 24h,113%
same,activity at 1 µM,"[1]; 1 µM, 2h",104%
same,activity at 1 µM,"[1]; 1 µM, 24h",219%
same,"Apoptosis (caspase-3/7 activation), result in words",[1],induced apoptosis in hSC-CMs with a fast onset
same,Time to reach the maximum number of apoptotic cells,[1],≤ 12 h
Nc1cccc(-c2cc3c(Oc4cccc(O)c4)ncnc3[nH]2)c1 [TWS119],"Effect on cardiomyocyte function in 3D surface plots (beating rate, base impedance, ATP), in words",[2],minimal functional effect
same,"Effect on hSC-CMs function (base impedance and beating rate), in words",[2],did not produce functionally relevant changes
same,BR,"[2]; 2h, 0.01 µM",107
same,Base Imp,"[2]; 2h, 0.01 µM",90
same,BR,"[2]; 2h, 0.1 µM",102
same,Base Imp,"[2]; 2h, 0.1 µM",86
same,BR,"[2]; 2h, 1 µM",103
same,Base Imp,"[2]; 2h, 1 µM",91
same,BR,"[2]; 2h, 10 µM",103
same,Base Imp,"[2]; 2h, 10 µM",90
same,BR,"[2]; 24h, 0.01 µM",107
same,Base Imp,"[2]; 24h, 0.01 µM",86
same,BR,"[2]; 24h, 0.1 µM",105
same,Base Imp,"[2]; 24h, 0.1 µM",91
same,BR,"[2]; 24h, 1 µM",104
same,Base Imp,"[2]; 24h, 1 µM",88
same,BR,"[2]; 24h, 10 µM",99
same,Base Imp,"[2]; 24h, 10 µM",84
same,Caspase,"[1]; 2h, 0.01 µM",142
same,Caspase,"[1]; 2h, 0.1 µM",127
same,Caspase,"[1]; 2h, 1 µM",127
same,Caspase,"[1]; 2h, 10 µM",105
same,Caspase,"[1]; 24h, 0.01 µM",137
same,Caspase,"[1]; 24h, 0.1 µM",114
same,Caspase,"[1]; 24h, 1 µM",96
same,Caspase,"[1]; 24h, 10 µM",113
same,"Apoptosis (caspase-3/7 activation), result in words",[1],did not have any functionally-relevant effect
same,ATP,"[3]; 2h, 0.01 µM",94
same,ATP,"[3]; 2h, 0.1 µM",98
same,ATP,"[3]; 2h, 1 µM",98
same,ATP,"[3]; 2h, 10 µM",96
same,ATP,"[3]; 24h, 0.01 µM",102
same,ATP,"[3]; 24h, 0.1 µM",98
same,ATP,"[3]; 24h, 1 µM",98
same,ATP,"[3]; 24h, 10 µM",104
same,"Effect on ATP level, in words","[3]; hSC-CMs, up to the highest test concentrations",did not impact the ATP level
same,IC50,GSK-3β,30 nM
O=c1cc(N2CCOCC2)oc2c(-c3ccccc3)cccc12 [LY 294002],activity at 0.03 µM,"[2]; 2h, read-out: BR",112%
same,activity at 0.03 µM,"[2]; 2h, read-out: Base Imp",72%
same,activity at 0.03 µM,"[2]; 24h, read-out: BR",111%
same,activity at 0.03 µM,"[2]; 24h, read-out: Base Imp",72%
same,activity at 0.3 µM,"[2]; 2h, read-out: BR",109%
same,activity at 0.3 µM,"[2]; 2h, read-out: Base Imp",71%
same,activity at 0.3 µM,"[2]; 24h, read-out: BR",94%
same,activity at 0.3 µM,"[2]; 24h, read-out: Base Imp",75%
same,activity at 3 µM,"[2]; 2h, read-out: BR",94%
same,activity at 3 µM,"[2]; 2h, read-out: Base Imp",70%
same,activity at 3 µM,"[2]; 24h, read-out: BR",63%
same,activity at 3 µM,"[2]; 24h, read-out: Base Imp",59%
same,activity at 30 µM,"[2]; 2h, read-out: BR",0%
same,activity at 30 µM,"[2]; 2h, read-out: Base Imp",50%
same,activity at 30 µM,"[2]; 24h, read-out: BR",0%
same,activity at 30 µM,"[2]; 24h, read-out: Base Imp",33%
same,"Effect on cardiomyocyte function in 3D surface plots (beating rate, base impedance, ATP), in words","[2]; hSC-CMs, 2 and 24 h",pronounced effects
same,Reduction of base impedance,"[2]; hSC-CMs, 2 and 24 h",more than 20%
same,Reduction of beating rate,"[2]; hSC-CMs, 2 and 24 h",more than 20%
same,activity at 0.03 µM,[1]; 2h,194%
same,activity at 0.03 µM,[1]; 24h,95%
same,activity at 0.3 µM,[1]; 2h,130%
same,activity at 0.3 µM,[1]; 24h,93%
same,activity at 3 µM,[1]; 2h,110%
same,activity at 3 µM,[1]; 24h,217%
same,activity at 30 µM,[1]; 2h,62%
same,activity at 30 µM,[1]; 24h,428%
same,"Apoptosis (caspase-3/7 activation), result in words",[1],induced apoptosis in hSC-CMs with a fast onset
same,Time to reach the maximum number of apoptotic cells,[1],≤ 12 h
same,viability at 0.03 µM,[3]; 2h,89%
same,viability at 0.03 µM,[3]; 24h,95%
same,viability at 0.3 µM,[3]; 2h,85%
same,viability at 0.3 µM,[3]; 24h,91%
same,viability at 3 µM,[3]; 2h,90%
same,viability at 3 µM,[3]; 24h,78%
same,viability at 30 µM,[3]; 2h,103%
same,viability at 30 µM,[3]; 24h,86%
same,Decrease of ATP level,"[3]; hSC-CMs, after 24 h of incubation",20–25%

# — paper PMC8242589, “Cardiac Safety of Kinase Inhibitors – Improving Understanding and Prediction of Liabilities in Drug Discovery Using Human Stem Cell-Derived Models” (Frontiers in Cardiovascular Medicine, 2021)
